Test systems include NCI-H226; HOP-62; SF-295; SK-MEL-5; SN12C; HCT-116; NCI-H522; IGROV-1; OVCAR-8; HCT-15; ACHN; KM12; SK-MEL-2; NCI-H460; SK-MEL-28; EKVX; DLD-1.
Common to all, as to assay: growth of human tumour cells (NCI), 48 h

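Growth conditions: 96-well plates. Treatment: test compound, 48 hours, 5 concentrations. Analysis: linear interpolation between bracketing concentrations; unreached endpoints set to highest concentration. At the GI50, growth is halved.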 The source made the active and inactive calls. Rule as the data show it: active = GI50 up to about 1.1 µM and inactive = higher.

9 compounds from ChEMBL document CHEMBL1201862, “PubChem BioAssay data set” (2004) can be followed below.

As for `CC1(c2cccc3c2C2(O)C=CC4(CCC32)OCCO4)OCCO1` (stereo unspecified), the GI50 in the test on NCI-H226, with HOP-62, with SF-295, in the test with SK-MEL-5, with SN12C and with HCT-116 was > 100 µM (inactive) throughout. The GI50 is > 100 µM (inactive) with NCI-H522; > 100 µM (inactive) in the test on IGROV-1; > 100 µM (inactive) in the test with OVCAR-8; greater than 100 µM in the test on HCT-15; > 100 µM (inactive) in the test on ACHN; > 100 µM (inactive) in the test on KM12. Further, the GI50 with SK-MEL-2, in the test with NCI-H460, in the test with SK-MEL-28, with EKVX and in the test with DLD-1 was > 100 µM (inactive) throughout.
For `CC(=O)N/C(=C\c1cccc([N+](=O)[O-])c1)c1nc2ccc3c(c2[nH]1)C(=O)c1ccccc1C3=O`, the GI50 in the test on NCI-H226 was > 100 µM (inactive); in the test on HOP-62, 78 µM (inactive); in the test with SF-295 it was > 100 µM (inactive); in the test on SK-MEL-5, > 79.6 µM (inactive); in the test on SN12C it was 21 µM (inactive); in the test with HCT-116 it was 17.9 µM (inactive). Moreover, the GI50 was 9.89 µM (inactive) with NCI-H522; 10.4 µM (inactive) in the test with IGROV-1; 43.6 µM (inactive) with OVCAR-8; 13.9 µM with HCT-15; 4.37 µM (inactive) in the test with ACHN; 7.57 µM (inactive) in the test with KM12. Also, the GI50 with SK-MEL-2 is 50.2 µM (inactive); with NCI-H460 it was 27.2 µM (inactive); with SK-MEL-28, > 100 µM (inactive); with EKVX, 12.7 µM (inactive); with DLD-1 it was 12.2 µM (inactive).
As to `CCOC(=O)C(=O)C(C#N)c1ccc(Cl)cc1` (stereo unspecified), the GI50 was 62.4 µM (inactive) in the test with NCI-H226; > 100 µM (inactive) in the test on HOP-62; > 100 µM (inactive) in the test on SF-295; > 100 µM (inactive) with SK-MEL-5; > 100 µM (inactive) in the test with SN12C; > 100 µM (inactive) in the test with HCT-116. In addition, the GI50 is > 100 µM (inactive) in the test with NCI-H522; > 100 µM (inactive) in the test on IGROV-1; > 100 µM (inactive) with OVCAR-8; greater than 100 µM in the test with HCT-15; > 100 µM (inactive) in the test on ACHN; > 100 µM (inactive) in the test with SK-MEL-2. Also, the GI50 in the test on NCI-H460, in the test with SK-MEL-28, in the test with EKVX and in the test with DLD-1 was > 100 µM (inactive) throughout.
In the case of `COc1ccc2c(c1)CC1c3c(ccc(OC)c3O)CC2N1C` (stereo unspecified), the GI50 with NCI-H226 was 86.1 µM (inactive); with HOP-62, > 92.3 µM (inactive); in the test on SF-295, 22.8 µM (inactive); in the test with SK-MEL-5, 18.1 µM (inactive); in the test with SN12C it was 43 µM (inactive); in the test on HCT-116, 19.6 µM (inactive). The GI50 was 19.7 µM (inactive) with NCI-H522; 44.1 µM (inactive) in the test on IGROV-1; 34.2 µM (inactive) in the test with OVCAR-8; 34.4 µM in the test on HCT-15; 51.5 µM (inactive) in the test with ACHN; 28.2 µM (inactive) in the test on KM12. Besides, the GI50 in the test with SK-MEL-2 was 19.2 µM (inactive); with NCI-H460, 19.3 µM (inactive); with SK-MEL-28, 21 µM (inactive); with EKVX, 50.9 µM (inactive); in the test with DLD-1, 68.5 µM (inactive).
Consider `CC1=C(CO)C(=O)OC(C(C)C2CCC3C4CC5OC56C(O)C(N5CC5)=CC(=O)C6(C)C4CCC23C)C1` (stereo unspecified), for which the GI50 is 14.2 µM (inactive) with NCI-H226; 18.5 µM (inactive) in the test with HOP-62; 16.5 µM (inactive) with SF-295; 12.8 µM (inactive) in the test with SK-MEL-5; 6.58 µM (inactive) with SN12C; 3.02 µM (inactive) in the test on HCT-116. The GI50 was 1.67 µM (inactive) in the test with NCI-H522; 3.47 µM (inactive) with IGROV-1; 2.2 µM (inactive) in the test with OVCAR-8; 3.46 µM in the test with HCT-15; 5.74 µM (inactive) in the test with ACHN; 2.02 µM (inactive) in the test with KM12. Also, the GI50 was 5.73 µM (inactive) with SK-MEL-2; 9.44 µM (inactive) in the test on NCI-H460; 16 µM (inactive) with SK-MEL-28; 12.2 µM (inactive) with EKVX; 4.93 µM (inactive) with DLD-1.
In the case of `CN(C)c1ccc(/C=c2\sc3nnc(Cc4ccccc4)n3c2=O)cc1`, the GI50 is > 10 µM (inactive) in the test on NCI-H226; > 10 µM (inactive) in the test on HOP-62; > 10 µM (inactive) with SF-295; > 10 µM (inactive) with SK-MEL-5; > 10 µM (inactive) with SN12C; 17.1 µM (inactive) in the test with HCT-116. Also, the GI50 in the test on NCI-H522 was > 10 µM (inactive); with IGROV-1 it was > 10 µM (inactive); in the test on OVCAR-8 it was > 10 µM (inactive); in the test with HCT-15 it was 20.2 µM; in the test on ACHN it was 75.3 µM (inactive); with KM12 it was > 10 µM (inactive). The GI50 in the test on SK-MEL-2, in the test with NCI-H460, in the test with SK-MEL-28, in the test on EKVX and in the test with DLD-1 was > 10 µM (inactive) each time.
Take `CC(C)N(C(=O)c1cccc(C(=O)N(C(C)C)C(C)C)c1)C(C)C`: the GI50 with NCI-H226, with HOP-62, in the test on SF-295, in the test with SK-MEL-5, with SN12C and in the test on HCT-116 was > 100 µM (inactive) throughout. The GI50 was > 100 µM (inactive) in the test with NCI-H522; > 100 µM (inactive) in the test on IGROV-1; > 100 µM (inactive) with OVCAR-8; greater than 100 µM in the test on HCT-15; > 100 µM (inactive) in the test on ACHN; > 100 µM (inactive) with KM12. In addition, the GI50 in the test on SK-MEL-2, with NCI-H460, in the test with SK-MEL-28, in the test with EKVX and in the test on DLD-1 was > 100 µM (inactive) each time.
As to `CCCCN(CCCC)c1c([N+](=O)[O-])c(=O)nc2ccccn12`, the GI50 in the test with NCI-H226 is 75.3 µM (inactive); in the test on HOP-62 it was 32.6 µM (inactive); with SK-MEL-5 it was 33.5 µM (inactive); with SN12C it was 34.1 µM (inactive); in the test with HCT-116, 38.9 µM (inactive); in the test on NCI-H522, 17.6 µM (inactive). The GI50 with IGROV-1 is > 100 µM (inactive); with OVCAR-8 it was 27.5 µM (inactive); with HCT-15, 39.4 µM; with ACHN, 35.2 µM (inactive); in the test with KM12, 31.3 µM (inactive); in the test on SK-MEL-2 it was 31 µM (inactive). Also, the GI50 is 24.8 µM (inactive) with NCI-H460, 13.7 µM (inactive) in the test with SK-MEL-28, 32.8 µM (inactive) in the test on EKVX and 35.4 µM (inactive) in the test with DLD-1.
Turning to `CC(C)Cc1ccc(C(C)/C=C2\CCC(CN3CCCC3)C2=O)cc1` (stereo unspecified), the GI50 was 18.1 µM (inactive) in the test with NCI-H226; 12.3 µM (inactive) in the test on HOP-62; 16.9 µM (inactive) in the test with SF-295; 14.8 µM (inactive) with SK-MEL-5; 3.97 µM (inactive) in the test with SN12C; 4.13 µM (inactive) with HCT-116. The GI50 with NCI-H522 is 1.31 µM (inactive); with IGROV-1, 5.74 µM (inactive); in the test on OVCAR-8, 7.01 µM (inactive); in the test on HCT-15, 4.06 µM; with ACHN, 11.7 µM (inactive); in the test with KM12, 2.77 µM (inactive). Also, the GI50 is 17.7 µM (inactive) with SK-MEL-2; 17.7 µM (inactive) in the test with NCI-H460; 14.6 µM (inactive) with SK-MEL-28; 18.2 µM (inactive) with EKVX; 2.55 µM (inactive) with DLD-1.
